The target of data set [1] is T1, recombinant human CDK1/Cyclin B complex (Homo sapiens, UniProt P06493).
T1 construct: made in house; host or cells: High Five insect cells (baculovirus) for CDK1/GST-cyclin B; E. coli M15 for the Rb substrate
In words: CDK1/Cyclin B kinase assay (FlashPlate or HTRF). The format is biochemical. The note with it: Rb protein substrate, Ki=IC50/(1+[S]/Km). The procedure: To determine inhibition of CDK1 activity, either FlashPlate™ (NEN™-Life Science Products) assay or HTRF assay was performed. Both types of kinase assays were carried out using recombinant human CDK1/Cyclin B complex. GST-cyclinB (GST-cycB) and CDK1 cDNA clones in baculovirus vectors were provided by Dr. W. Harper at the Baylor College of Medicine, Houston, Tex. Proteins were co-expressed in High Five™ insect cells and the complex was purified on glutathione Sepharose resin (Pharmacia, Piscataway, N.J.) as previously described (Harper, J. W. et al. Cell 1993, 75, 805-816). A 6×-Histidine tagged truncated form of retinoblastoma (Rb) protein (amino acid 386-928) was used as the substrate for the CDK1/Cyclin B assay (the expression plasmid was provided by Dr. Veronica Sullivan, Department of Molecular Virology, Roche Research Centre, Welwyn Garden City, United Kingdom). The Rb protein is a natural substrate for phosphorylation by CDK1 (see Herwig and Strauss Eur. J. Biochem. Vol. 246 (1997) pp. 581-601 and the references cited therein). The expression of the 62 Kd protein was under the control of an IPTG inducible promoter in an M15 E. coli strain. Cells were lysed by sonication and purification was carried out by binding lysates at pH 8.0 to a Ni-chelated agarose column pretreated with 1 mM imidazole. The resin was then washed several times with incrementally decreasing pH buffers to pH 6.0, and eluted with 500 mM imidazole. Eluted protein was dialysed against 20 mM HEPES pH 7.5, 30% glycerol, 200 mM NaCl, and 1 mM DTT. Purified Rb fusion protein stocks were quantitated for protein concentration, aliquoted, and stored at −70° C.
For the FlashPlate kinase assay, 96-well FlashPlates were coated with Rb protein at 10 μg/ml, using 100 μl per well. Plates were incubated at 4° C. overnight or at room temperature for 3 hours on a shaker. To control for nonspecific phosphorylation, one row of wells was coated with 100 μl/well coating buffer (20 mM HEPES, 0.2 M NaCl). Plates were then washed twice with wash buffer (0.01% Tween 20 in phosphate-buffered saline). Compounds to be tested (“test compounds”) were added to the wells at 5× final concentration. Reactions were initiated by immediate addition of 40 μl reaction mix (25 mM HEPES, 20 mM MgCl2, 0.002% Tween 20, 2 mM DTT, 1 μM ATP, 4 nM ^33P-ATP) and a sufficient amount of enzyme to give counts that were at least 10-fold above background. Plates were incubated at room temperature on a shaker for 30 minutes. Plates were washed four times with the wash buffer, sealed, and counted on the TopCount scintillation counter (Packard Instrument Co., Downers Grove, Ill.]. The percent inhibition of Rb phosphorylation, which is a measure of the inhibition of CDK activity, was determined according to the following formula:
[formula] where “test compound” refers to the average counts per minute of the test duplicates, “nonspecific” refers to the average counts per minute when no CDK1/Cyclin B, etc., was added, and “total” refers to the average counts per minute when no compound was added. The IC50 value is the concentration of test compound that reduces by 50% the protein-kinase induced incorporation of the radiolabel under the test conditions described. The value of the inhibitor constant Ki is calculated by the following: Ki=IC50/(1+[S]/Km), where [S] is the ATP concentration and Km is Michaelis constant.
The Homogeneous Time Resolved Fluorescence (HTRF) kinase assay was carried out in 96-well polypropylene plates (BD Biosciences, Bedford, Mass.). Test compounds were first dissolved in DMSO, and then diluted in kinase assay buffer 1 (25 mM HEPES, pH7.0, 8 mM MgCl2, 1.5 mM DTT, and 162 μM ATP) with DMSO concentration at 15%. The CDK1/Cyclin B enzyme was diluted in kinase assay buffer 2 (25 mM HEPES, pH 7.0, 8 mM MgCl2, 0.003% Tween 20, 0.045% BSA, 1.5 mM DTT, and 0.338 μM Rb protein). […]
A general note: TR-FRET usually uses a lanthanide donor and a delayed reading to cut background.

Where a name gives a salt, the structure may show the parent alone.

T1 sequence (P06493 whole entry): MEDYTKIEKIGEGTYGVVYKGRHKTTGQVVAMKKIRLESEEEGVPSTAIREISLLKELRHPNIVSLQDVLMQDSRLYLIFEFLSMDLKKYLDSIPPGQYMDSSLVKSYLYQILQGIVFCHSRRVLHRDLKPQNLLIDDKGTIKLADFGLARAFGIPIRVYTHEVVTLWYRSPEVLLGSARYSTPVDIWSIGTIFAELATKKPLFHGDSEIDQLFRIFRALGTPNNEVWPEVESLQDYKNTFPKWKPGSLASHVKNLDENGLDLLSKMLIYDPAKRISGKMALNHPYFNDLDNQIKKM
T1 sequence (P14635 whole entry partner): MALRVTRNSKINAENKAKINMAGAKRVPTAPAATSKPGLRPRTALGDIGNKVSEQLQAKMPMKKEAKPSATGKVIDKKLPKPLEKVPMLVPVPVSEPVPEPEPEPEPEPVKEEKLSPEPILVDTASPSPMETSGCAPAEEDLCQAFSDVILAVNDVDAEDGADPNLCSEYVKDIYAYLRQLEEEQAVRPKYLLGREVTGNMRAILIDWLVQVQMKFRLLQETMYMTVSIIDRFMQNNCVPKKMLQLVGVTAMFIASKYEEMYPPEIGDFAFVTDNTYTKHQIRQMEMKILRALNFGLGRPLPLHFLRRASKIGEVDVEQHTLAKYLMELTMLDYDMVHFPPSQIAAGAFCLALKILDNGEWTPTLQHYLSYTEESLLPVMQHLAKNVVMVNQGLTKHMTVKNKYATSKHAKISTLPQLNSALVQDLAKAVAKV

`COc1ccnc2ccc(/C=C3\SC(NCc4cccs4)=NC3=O)cc12` [Example 1, 5-(4-Methoxy-quinolin-6-ylmeth-(Z)-ylidine)-2-[(thiophen-2-ylmethyl)-amino]-thiazol-4-one] yielded a melting point of 258 to 262 °C. Same read-out and setting: the figure for `COc1ccnc2ccc(/C=C3\SC(N[C@H]4C[C@@H]4c4ccccc4)=NC3=O)cc12` [Example 2, 5-(4-Methoxy-quinolin-6-ylmeth-(Z)-ylidine)-2-((1R,2S)-2-phenyl-cyclopropylamino)-thiazol-4-one] is 251 to 253 °C; for `CCOc1ccnc2ccc(/C=C3\SC(NCc4cccs4)=NC3=O)cc12` [Example 4, 5-(4-Ethoxy-quinolin-6-ylmeth-(Z)-ylidine)-2-[(thiophen-2-ylmethyl)-amino]-thiazol-4-one] it is 226 to 228 °C. In turn, `CCOc1ccnc2ccc(/C=C3\SC(N[C@H]4C[C@@H]4c4ccccc4)=NC3=O)cc12` [Example 5, 5-(4-Ethoxy-quinolin-6-ylmeth-(Z)-ylidine)-2-((1R,2S)-2-phenyl-cyclopropylamino)-thiazol-4-one] registered a melting point of 266 to 268 °C. Further, the Ki in data set [1] came out at 39 nM. With `O=C1N=C(N[C@H]2C[C@@H]2c2ccccc2)S/C1=C\c1ccc2nccc(OCC3CCCCC3)c2c1` [Example 10, 5-(4-Cyclohexylmethoxy-quinolin-6-ylmeth-(Z)-ylidine)-2-((1R,2S)-2-phenyl-cyclopropylamino)-thiazol-4-one], the melting point was 223 to 227 °C. The Ki in data set [1] came to 1190 nM. In the case of `O=C1N=C(NCc2cccs2)S/C1=C\c1ccc2nccc(N3CCOCC3)c2c1` [Example 15, 5-(4-Morpholin-4-yl-quinolin-6-ylmeth-(Z)-ylidine)-2-[(thiophen-2-ylmethyl)-amino]-thiazol-4-one], the Ki in data set [1] stood at 210 nM. Same read-out and setting: the figure for `COCCOc1ccnc2ccc(/C=C3\SC(N)=NC3=O)cc12` [Example 20, 2-Amino-5-[4-(2-methoxy-ethoxy)-quinolin-6-ylmeth-(Z)-ylidine]-thiazol-4-one as trifluoroacetate salt] is 32 nM. In turn, `O=C1N=C(NCc2cccs2)S/C1=C\c1ccc2nccc(Oc3ccccc3)c2c1` [Example 24, 5-(4-Phenoxy-quinolin-6-ylmeth-(Z)-ylidine)-2-[(thiophen-2-ylmethyl)-amino]-thiazol-4-one] gave a melting point of 239 to 240.5 °C.

Consider `NC1=NC(=O)/C(=C/c2ccc3nccc(Oc4ccccc4)c3c2)S1` [Example 25, 2-Amino-5-(4-phenoxy-quinolin-6-ylmeth-(Z)-ylidine)-thiazol-4-one], for which, in data set [1], the Ki amounted to 340 nM. Still for that read-out and setting: the value for `CCOc1ccnc2ccc(/C=C3\SC(NCc4cnc(C)cn4)=NC3=O)cc12` [Example 30, 2-[(5-Methyl-pyrazin-2-ylmethyl)-amino]-5-(4-ethoxy-quinolin-6-ylmeth-(Z)-ylidine)-thiazol-4-one] was 281 nM; that for `CCSc1ccnc2ccc(/C=C3\SC(N[C@H]4C[C@@H]4c4ccccc4)=NC3=O)cc12` [Example 35, 5-(4-Ethylsulfanyl-quinolin-6-ylmeth-(Z)-ylidine)-2-((1R,2S)-2-phenyl-cyclopropylamino)-thiazol-4-one] was 37.2 nM; that for `CCOc1ccnc2ccc(/C=C3\SC(NCCc4cccc(F)c4)=NC3=O)cc12` [Example 40] was 13 nM.

A word on the melting point: it is the temperature of the solid-liquid transition. What is called Ki is the dissociation constant of the complex between target and ligand, obtained from inhibition or displacement.

Source of the values: patent US7253285B2, “Thiazolinone 4-monosubstituted quinolines” (Hoffmann-La Roche Inc., priority 2004, dated 2007).
